These results are taken from paper PMC9894920, “Development of an improved and specific inhibitor of NADPH oxidase 2 to treat traumatic brain injury” (Redox Biology, 2023).

Read-outs that look alike come from different tables or passages of the source.

The target of assay [1] is T1, NOX2 (Mus musculus, UniProt Q61093).
T1 construct: relative potencies in primary mouse neutrophils enriched from bone marrow; endogenous in cells; host or cells: primary mouse bone-marrow granulocytes
T1 sequence (Q61093 2-570 limits assumed): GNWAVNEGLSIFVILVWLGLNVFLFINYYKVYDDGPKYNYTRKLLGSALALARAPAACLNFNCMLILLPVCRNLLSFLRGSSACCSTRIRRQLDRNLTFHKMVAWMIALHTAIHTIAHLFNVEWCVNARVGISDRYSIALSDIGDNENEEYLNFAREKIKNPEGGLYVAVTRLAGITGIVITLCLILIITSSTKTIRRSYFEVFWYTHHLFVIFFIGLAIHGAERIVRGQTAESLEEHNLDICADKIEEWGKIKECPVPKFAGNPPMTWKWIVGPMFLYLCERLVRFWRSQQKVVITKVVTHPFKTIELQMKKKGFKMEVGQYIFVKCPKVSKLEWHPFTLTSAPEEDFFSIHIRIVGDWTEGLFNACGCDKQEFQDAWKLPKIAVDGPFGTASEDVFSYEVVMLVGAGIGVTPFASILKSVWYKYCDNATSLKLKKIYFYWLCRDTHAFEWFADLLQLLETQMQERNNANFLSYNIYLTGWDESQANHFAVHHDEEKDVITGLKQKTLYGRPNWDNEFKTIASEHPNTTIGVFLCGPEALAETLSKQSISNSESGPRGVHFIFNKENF
T1 sequence (Q61462 2-192 partner limits assumed): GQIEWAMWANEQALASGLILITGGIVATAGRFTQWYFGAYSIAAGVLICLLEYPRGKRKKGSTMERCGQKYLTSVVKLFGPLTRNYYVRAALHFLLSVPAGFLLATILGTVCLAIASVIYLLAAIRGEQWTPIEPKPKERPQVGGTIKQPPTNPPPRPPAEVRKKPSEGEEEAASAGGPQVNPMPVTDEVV
The experiment in a line: NOX2 activity in primary mouse neutrophils enriched from bone marrow. It is filed as cell-based. Conditions: SD, n = 8 mice. The procedure:
Human blood was obtained after informed consent by the Department of Transfusion Medicine (NIH Clinical Center) and provided as de-identified specimens. Human granulocytes were isolated using Percoll density fractionation as described and NOX2 activity was assessed in white polypropylene flat bottom 96 well plates following 15 min of preincubation at 37 °C with compounds or vehicle controls using 50 μM luminol as a chemiluminescence enhancer in an assay volume of 100 μl RPMI1640 with 1.1 × 10^5 cells/well in Varioskan Lux luminometer for 30 cycles of 1 s per well (approximately 1 h).
Mouse granulocytes were isolated from bone marrow essentially as described except bones were not sterilized in ethanol and marrow was not flushed through a 100 μm strainer. Furthermore, RPMI1640 was supplemented with 10% FBS, 2 mM EDTA, and 25 mM HEPES buffer and penicillin/streptomycin was omitted. Polymorphonuclear leukocytes (PMN) concentration and purity (>90% granulocytes) were assessed microscopically using 3% acetic acid and a hemacytometer. NOX2 activity was assessed as described above with human granulocytes.

For assay [2], the target named is T2, NOX2 (Homo sapiens, UniProt P04839).
T2 sequence (P04839 2-570 limits assumed): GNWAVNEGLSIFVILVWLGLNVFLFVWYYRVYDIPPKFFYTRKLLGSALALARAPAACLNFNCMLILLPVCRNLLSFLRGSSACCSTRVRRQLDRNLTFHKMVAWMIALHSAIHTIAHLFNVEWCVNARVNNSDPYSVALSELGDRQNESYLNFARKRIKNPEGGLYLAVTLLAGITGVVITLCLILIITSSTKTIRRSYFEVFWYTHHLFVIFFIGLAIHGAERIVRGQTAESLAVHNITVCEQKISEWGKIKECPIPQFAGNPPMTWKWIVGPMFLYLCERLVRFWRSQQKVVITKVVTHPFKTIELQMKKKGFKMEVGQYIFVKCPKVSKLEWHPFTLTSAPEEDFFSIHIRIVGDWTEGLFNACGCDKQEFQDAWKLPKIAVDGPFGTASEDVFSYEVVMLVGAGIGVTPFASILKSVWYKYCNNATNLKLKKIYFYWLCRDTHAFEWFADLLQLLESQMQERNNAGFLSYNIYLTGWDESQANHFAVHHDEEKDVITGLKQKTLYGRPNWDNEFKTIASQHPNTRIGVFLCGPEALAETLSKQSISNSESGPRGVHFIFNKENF
T2 sequence (P13498 2-195 partner limits assumed): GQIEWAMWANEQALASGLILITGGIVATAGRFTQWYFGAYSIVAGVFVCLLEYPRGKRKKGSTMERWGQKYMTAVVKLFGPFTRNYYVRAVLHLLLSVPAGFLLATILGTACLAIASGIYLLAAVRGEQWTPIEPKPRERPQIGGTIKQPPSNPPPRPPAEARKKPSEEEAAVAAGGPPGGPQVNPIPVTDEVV
In words: NOX2 activity in primary human granulocytes (PMN), luminol chemiluminescence. It is filed as cell-based. The arrangement: When tested against NOX2 in primary human neutrophils; endogenous in cells; host or cells: primary human granulocytes (PMN) from donor blood. The gist of the method: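 Percoll-isolated human blood granulocytes, 1.1 × 10^5 cells/well in RPMI1640, preincubated 15 min at 37 °C with compound or vehicle. NOX2 activity read as luminol (50 μM) enhanced chemiluminescence over 30 cycles, approximately 1 h.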

Assay [3] relates to mTBI induced cortical cell death. The experiment in a line: Focal cortical mTBI model, transcranial administration, cortical cell death (propidium iodide). It is filed as in vivo, mouse.

Usually IC50 stands for the concentration at which inhibition is half-maximal. In the case of `Cn1ccc(S(=O)(=O)Nc2ccnc3c2c(-c2ccc4ccn(C)c4c2)cn3C2CC2)n1` [NCATS-SM7270, N-(1-cyclopropyl-3-(1-methyl-1H-indol-6-yl)-1H-pyrrolo [2,3-b]pyridin-4-yl)-1-methyl-1H-pyrazole-3-sulfonamide], the IC50 on NOX2 [1] amounted to 4.28 ± 1.05 µM; on NOX2 [2] (mean of 6 donors ± S.D., read-out: IC50 against NOX2 in primary human neutrophils), 4.09 ± 1 µM; on NOX2 [2] (mean ± SD, n in cell, read-out: NOX-2 IC50 from PMN) it was 2.15 µM. In addition, the “cortical cell death in NOX1 deficient mice” value in assay [3] (NOX1 KO mice, 40 μM transcranial) was “had no impact”. The “cortical cell death in NOX2 deficient mice” value in assay [3] (NOX2 KO mice, 40 μM transcranial) is reported as “had no impact”. The “cortical cell death in NOX4 KO mice” value in assay [3] (NOX4 KO mice, 40 μM transcranial) was “significantly reduced cortical cell death”. The “reduction of cortical cell death” value in assay [3] (WT mice, 40 μM transcranially immediately after mTBI) was about 50%. For the same compound, the “dose dependence of reduction in mTBI induced cortical cell death” value in assay [3] (WT mice, transcranial, titration 10, 50 or 100 μM) is “dose-dependent reduction”.
